From the supplement of paper PMC10307832

How the values were obtained:
Test in all cases: relative viability (nuclei count vs DMSO), 5 days (fraction); higher = more cells survive
Sulindac + Dasatinib = compound: CC1=C(CC(=O)O)c2cc(F)ccc2/C1=C\c1ccc([S+](C)[O-])cc1 [Sulindac] + Cc1nc(Nc2ncc(C(=O)Nc3c(C)cccc3Cl)s2)cc(N2CCN(CCO)CC2)n1 [Dasatinib] (partner 0.075 µM)
In short: (§1)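 One day after seeding in 1536-well plates, lung cancer cell lines were dosed by pin tool. Dosing was either single-drug or a fixed anchor-drug dose plus five library-drug doses (not always all listed) in √10 steps. After 5 days, nuclei were stained in one fix-and-stain step and counted on 4× images, and relative viability is the nuclei count of treated wells over that of vehicle wells, given as the median of duplicate plates.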

Staurosporine + OSI-027 = compound: CN[C@@H]1C[C@H]2O[C@@](C)([C@@H]1OC)n1c3ccccc3c3c4c(c5c6ccccc6n2c5c31)C(=O)NC4 [Staurosporine] + COc1cccc2cc(-c3nc([C@H]4CC[C@H](C(=O)O)CC4)n4ncnc(N)c34)[nH]c12 [OSI-027] (partner 0.5 µM)
In short: as §1

Sulindac + Alpelisib = compound: CC1=C(CC(=O)O)c2cc(F)ccc2/C1=C\c1ccc([S+](C)[O-])cc1 [Sulindac] + Cc1nc(NC(=O)N2CCC[C@H]2C(N)=O)sc1-c1ccnc(C(C)(C)C(F)(F)F)c1 [Alpelisib] (partner 2 µM)
In short: as §1

[1] = compound: CN[C@@H]1C[C@H]2O[C@@](C)([C@@H]1OC)n1c3ccccc3c3c4c(c5c6ccccc6n2c5c31)C(=O)NC4 [Staurosporine] + Nc1nc2[nH]cc(CCc3ccc(C(=O)N[C@@H](CCC(=O)O)C(=O)O)cc3)c2c(=O)[nH]1 [Pemetrexed] (partner 0.2 µM)
In short: as §1

Cell Line | relative viability (Sulindac + Dasatinib; first compound 0.08 µM) | relative viability (Sulindac + Dasatinib; first compound 0.253 µM) | relative viability (Sulindac + Dasatinib; first compound 0.8 µM) | relative viability (Sulindac + Dasatinib; first compound 2.53 µM) | relative viability (Sulindac + Dasatinib; first compound 8 µM) | relative viability (Staurosporine + OSI-027; first compound 0.005 µM) | relative viability (Staurosporine + OSI-027; first compound 0.01581 µM) | relative viability (Staurosporine + OSI-027; first compound 0.05 µM) | relative viability (Staurosporine + OSI-027; first compound 0.1581 µM) | relative viability (Staurosporine + OSI-027; first compound 0.5 µM) | relative viability (Sulindac + Alpelisib; first compound 0.08 µM) | relative viability (Sulindac + Alpelisib; first compound 0.253 µM) | relative viability (Sulindac + Alpelisib; first compound 0.8 µM) | relative viability (Sulindac + Alpelisib; first compound 2.53 µM) | relative viability (Sulindac + Alpelisib; first compound 8 µM) | relative viability ([1]; first compound 0.005 µM) | relative viability ([1]; first compound 0.01581 µM) | relative viability ([1]; first compound 0.05 µM) | relative viability ([1]; first compound 0.1581 µM) | relative viability ([1]; first compound 0.5 µM)
NCI-H1563 | 0.414 | 0.451 | 0.476 | 0.418 | 0.497 | 0.65 | 0.573 | 0.562 | 0.523 | 0.488 | 0.915 | 0.853 | 0.86 | 0.884 | 0.923 | 0.543 | 0.39 | 0.522 | 0.45 | 0.41
NCI-H596 | 0.563 | 0.56 | 0.6 | 0.666 | 0.641 | 0.798 | 0.285 | 0.439 | 0.179 | 0.135 | 0.554 | 0.532 | 0.551 | 0.478 | 0.485 | 0.485 | 0.265 | 0.297 | 0.27 | 0.148
HCC-366 | 0.715 | 0.699 | 0.578 | 0.587 | 0.622 | 0.952 |  | 0.463 | 0.0332 | 0.0243 | 0.527 | 0.471 | 0.407 | 0.527 | 0.622 | 0.133 |  | 0.0702 | 0.0274 | 0.0293
NCI-H2087 | 1.23 | 0.82 |  | 0.8 | 1.11 | 0.366 | 0.135 | 0.147 | 0.106 | 0.107 | 1.16 | 1 | 1.23 | 1.17 | 1.04 | 0.548 | 0.531 | 0.429 | 0.171 | 0.117
RERF-LC-KJ | 1.03 | 0.973 | 0.692 | 0.802 | 0.838 | 0.475 | 0.3 | 0.234 | 0.234 | 0.181 | 0.837 | 0.889 | 0.65 | 0.877 | 0.746 | 0.501 | 0.423 | 0.375 | 0.205 | 0.202
HOP-62 | 0.696 | 0.652 |  | 0.718 | 0.646 | 0.554 | 0.225 | 0.125 | 0.112 | 0.0933 | 1.15 | 0.994 | 0.842 | 0.963 | 1.21 | 0.267 | 0.133 | 0.134 | 0.113 | 0.0837
NCI-H2126 | 0.558 | 0.585 | 0.597 | 0.57 | 0.671 | 0.712 | 0.406 | 0.486 | 0.338 | 0.333 | 0.723 | 0.737 | 0.669 | 0.721 | 0.807 | 0.64 | 0.262 | 0.4 | 0.279 | 0.211
SW 1573 | 0.392 | 0.691 |  | 0.574 | 0.497 | 0.161 | 0.11 | 0.085 | 0.0637 | 0.0578 |  | 0.706 |  | 0.793 | 0.934 | 0.297 | 0.34 | 0.204 | 0.0927 | 0.0611
NCI-H1793 | 0.431 | 0.38 | 0.369 | 0.408 | 0.398 | 0.378 |  | 0.174 | 0.0897 | 0.102 | 0.744 | 0.78 | 0.587 | 0.857 | 0.804 | 0.865 |  | 0.371 | 0.154 | 0.125
SK-LU-1 | 0.157 | 0.162 | 0.168 | 0.143 | 0.202 | 0.214 | 0.0957 |  | 0.113 | 0.0858 | 1.11 | 1.02 | 0.964 | 0.936 | 1.23 | 0.416 | 0.182 | 0.167 | 0.163 | 0.176
H3255 | 0.407 | 0.319 | 0.487 | 0.389 | 0.399 | 0.408 | 0.339 | 0.265 | 0.216 | 0.182 | 0.805 | 0.768 | 0.537 | 0.747 | 0.898 | 0.481 | 0.392 | 0.305 | 0.213 | 0.135
EMC-BAC-2 | 0.269 | 0.323 | 0.378 | 0.314 | 0.367 | 0.211 | 0.177 | 0.161 | 0.224 | 0.177 | 0.854 | 0.791 | 0.637 | 0.767 | 0.87 | 0.362 | 0.273 | 0.258 | 0.255 | 0.224
CAL-12T | 0.317 | 0.391 | 0.324 | 0.371 | 0.341 | 0.196 | 0.142 | 0.166 | 0.152 | 0.09 |  | 1.37 | 0.999 | 1.31 | 1.54 | 0.345 | 0.248 | 0.229 | 0.191 | 0.124
SK-MES-1 | 0.336 | 0.367 | 0.366 | 0.352 | 0.331 | 0.202 | 0.18 | 0.147 | 0.134 | 0.106 | 1.06 | 1.05 | 0.601 | 0.815 | 0.982 | 0.543 | 0.277 |  | 0.145 | 0.141
NCI-H1355 | 0.872 | 0.756 |  | 0.643 | 0.795 | 0.332 | 0.15 | 0.192 | 0.157 | 0.143 | 0.912 | 0.945 | 0.784 | 0.842 | 0.854 | 0.999 | 0.609 | 0.449 | 0.27 | 0.2
PC-3 [JPC-3] | 0.878 | 1.05 | 0.772 | 1.02 | 1.04 | 0.678 | 0.295 | 0.39 | 0.303 | 0.229 | 1.18 | 1.03 | 0.95 | 1.08 | 1.04 | 0.975 | 0.444 | 0.516 | 0.389 | 0.347
LK-2 | 0.325 | 0.215 |  |  | 0.313 | 0.256 | 0.158 | 0.244 | 0.151 | 0.111 | 1.42 | 1.14 |  |  | 1.38 | 0.331 | 0.255 | 0.269 | 0.0688 | 0.0539
